Measurements as given in patent US20250387270A1, “DEVICES AND METHODS FOR WOUND TREATMENT” (APPLIED TISSUE TECHNOLOGIES LLC, priority 2016, published 2025).

What was measured:
common bacteria = conditions: typical value for common bacteria; cited from earlier work
[1] = Stability of antibiotic drug activity in 0.5% (agarose) hydrogel over time; format: physicochemical; conditions: antibiotic in 0.5% (agarose) hydrogel, compare with original concentration
From the text: According to Table 1, gel-therapeutic agent preparations comprising an antibiotic and a 0.5% (agarose) hydrogel may be stable for up to one week. Drugs dissolve passively into the gel and stay stable over time. In some embodiments, the gel-therapeutic agent preparation may further comprise saline. The gel may be biocompatible, meaning that it is structurally similar to the extracellular matrix in tissues. The gel may be flowable, allowing either for, for example, casting into a mold or injection via needle through a port. The loading of the […] agent preparation in the device may allow consistent and uniform contact with the skin even with patient movement, maintaining continuous delivery of the therapeutic agent to the underlying tissue. The gel-therapeutic agent preparation may prevent loss of the therapeutic agent in the event of a minor leak in the adhesive of the device.

Compound	MIC (common bacteria)	Drug activity, 3 days ([1]; 3 days) [µg/mL]	Drug activity, 7 days ([1]; 7 days) [µg/mL]
CN[C@H](CC(C)C)C(=O)N[C@H]1C(=O)N[C@@H](CC(N)=O)C(=O)N[C@H]2C(=O)N[C@H]3C(=O)N[C@H](C(=O)N[C@H](C(=O)O)c4cc(O)cc(O)c4-c4cc3ccc4O)[C@H](O)c3ccc(c(Cl)c3)Oc3cc2cc(c3O[C@@H]2O[C@H](CO)[C@@H](O)[C@H](O)[C@H]2O[C@H]2C[C@](C)(N)[C@H](O)[C@H](C)O2)Oc2ccc(cc2Cl)[C@H]1O [Vancomicin]	around 2 micrograms per ml	–	–
Gentamicin	around 2 micrograms per ml	2.41	2.04
